Experiments:
[1] = LNP hydrodynamic diameter and polydispersity index by dynamic light scattering (DLS); assay type: physicochemical; conditions: LNP with 47.5% Ionizable Lipid: 40% cholesterol: 2.5% PEG-2000 DMG: 10% DPSC, N/P 4-8
Protocol: (§1) LNPs were prepared with 47.5% Ionizable Lipid (e.g., a compound provided herein): 40% cholesterol: 2.5% PEG-2000 DMG: 10% DPSC and an N/P ratio range of 4-8. LNPs were formed by microfluidic mixing of the lipid and NA solutions using a Precision Nanosystems NanoAssemblr Spark or Benchtop series Instruments, according to the manufacturer's protocol. A ratio of aqueous to organic solvent of approximately 2:1 or 3:1 was maintained during mixing using differential flow rates. After mixing, LNPs were collected, diluted in phosphate buffer saline (PBS) or Tris-buffered saline (TBS) (approximately 1:1 v/v). Further buffer exchange was conducted using dialysis in PBS or TBS at 4° C. for 4 to 24 hours against a 20 kDa filter. After this initial dialysis, each individual LNP preparation was characterized via dynamic light scattering (DLS) to measure the size (e.g., diameter) and polydispersity. LNPs falling within specific diameter and polydispersity ranges were pooled, and further dialyzed against PBS or TBS at 4° C. for 1 to 4 hours against a 100 kDa dialysis cassette. After the second dialysis, LNPs were sterile filtered using 0.22 μm filter and stored at 4° C. for further use.
LNP hydrodynamic diameter and polydispersity index (PDI) were measured using high throughput dynamic light scattering (DLS) (Stunner, Unchained Labs). LNPs were diluted 1×TBS or PBS to an appropriate concentration and analyzed.

[2] = RNA encapsulation efficiency of LNPs by Ribogreen assay; assay type: physicochemical; conditions: LNP with 47.5% Ionizable Lipid: 40% cholesterol: 2.5% PEG-2000 DMG: 10% DPSC, N/P 4-8
Protocol: as §1
RNA concentration and encapsulation efficiency were determined by Ribogreen assay (BioTek Synergy LX plate reader).

ALAS1 target site = assay: In vivo base editing in liver with LNPs carrying adenine base editor mRNA and sgRNA, targeted deep sequencing; conditions: Balb/C mice, tail vein, 0.15 mg/kg total RNA, ABE mRNA + ALAS1 sgRNA 1:1, tissues four to six days post-dose
Protocol: Exemplary LNP preparations were selected to determine each preparation's ability to perform base editing in a Balb/C mouse model as described herein.
Lipid nanoparticle components were dissolved in 100% ethanol at specified lipid component molar ratios. mRNA encoding an adenine base editor and a chemically-modified sgRNA was dissolved at a mass ratio of 1:1 in 50 mM citrate, pH 4.0, resulting in a concentration of NA cargo of approximately 0.1 mg/mL.
LNP preparations were formulated with molar ratios of 47.5% Ionizable Lipid: 40% Cholesterol: 2.5% PEG2000-DMG: 10% DSPC total lipid to NA mass ratio of 6 to 12.
LNP preparations were formed by microfluidic mixing of the lipid and NA solutions using a Precision Nanosystems NanoAssemblr Ignite series Instruments, according to the manufacturer's protocol.
A 3:1 ratio of aqueous to organic solvent was maintained during mixing using differential flow rates. After mixing, LNP preparations were collected, diluted in TBS (approximately 7:1 v/v), and further buffer exchange was conducted using dialysis in TBS at 4° C. for 8 to 24 hours against a 20 kDa filter. After this initial dialysis, each individual LNP preparation was characterized via dynamic light scattering (DLS) to measure size and polydispersity. pKa of a subpopulation of LNP preparations was measured via TNS assay.
After dialysis, LNP preparations were sterile filtered using 0.22 micron sterile filter and stored at 4° C. for further use. In some embodiments, LNP preparations were concentrated using 100 kDa Amicon filters per manufacturer's protocol.
Male Balb/C mice aged approximately 8-12 weeks were used in the experiments described herein. […]
Age-matched mice were also used to administer vehicle (1×TBS) via tail vein injection as a control. […] Base editing was determined by performing targeted deep sequencing analysis at the ALAS1 target site using extracted genomic DNA. […] Library size and concentration was confirmed by Fragment Analyzer (Agilent) and analyzed for whole genome sequencing using an Illumina HiSeq.

Lung = assay: Barcoded LNP biodistribution screen, fold above input (FAI) in lung; assay type: in vivo; conditions: pooled LNP IV tail vein, mice, 4 hours post-dose
Protocol: (§2) Male and female mice aged approximately 8-12 weeks were used for studies described by the present Example. Each mouse was temporarily restrained and pooled LNP was administered IV via tail vein injection in up to five animals per experiment. Age-matched mice was also used to administer vehicle (1×TBS) via tail vein injection in up to three animals per experiment. Additional routes of administration can also be conducted including intracerebral ventricular (ICV), intracisterna manga (ICM), intrathecal (IT), intramuscular (IM), nebulization, intranasal (IN), subcutaneous (SC), intraarticular, and intradermal (ID). At 4 hours post-dose, tissues including liver, spleen, bone marrow, testes, gastrocnemius, quadricep, lung, heart, kidney, and pancreas may be collected for analysis. […]
(§3) To screen for preferential LNP delivery to a target tissues, the relative abundance of each barcode in one or more target tissues was measured and compared to the relative abundance of each barcode to its corresponding relative input abundance to determine fold above input (FAI) for each barcode. […]
(§4) The FAI is the normalized relative abundance of a barcode in a selected sample as compared to its frequency in the input. […] The FAI value of the barcode was calculated by normalizing the relative abundance in the barcode sequence counts in the isolated samples to its relative abundance in the administration input. […]

Spleen = assay: Barcoded LNP biodistribution screen, fold above input (FAI) in spleen; assay type: in vivo; conditions: pooled LNP IV tail vein, mice, 4 hours post-dose
Protocol: as §2, with “(ID).” for “(ID). At 4 hours post-dose, tissues including liver, spleen, bone marrow, testes, gastrocnemius, quadricep, lung, heart, kidney, and pancreas may be collected for analysis.”
Liver, kidney, lung, and muscle (e.g. skeletal and cardiac) tissues may be mechanically, and then enzymatically digested using a mixture of proteinases, then passed through a 70 μm filter to generate single cell suspensions. […] Tissues were treated with ACK buffer to lyse red blood cells, and then stained with fluorescently-labeled antibodies for flow cytometry and fluorescence-activated cell sorting (FACS). […]
as §3

Liver = assay: Barcoded LNP biodistribution screen, fold above input (FAI) in liver; assay type: in vivo; conditions: pooled LNP IV tail vein, mice, 4 hours post-dose
Protocol: as §2, §3, §4

Row | Compound | Mean Diameter (nm) [1] [nm] | Mean PDI [1] | Mean Encapsulation Efficiency (%) [2] [%] | base editing observed in liver (ALAS1 target site) [%] | FAI (Lung) (Lung; Table 3 screening experiment) | FAI (Lung) (Lung; Table 4 screening experiment) | FAI (Spleen) (Spleen; Table 3 screening experiment) | FAI (Spleen) (Spleen; Table 4 screening experiment) | FAI (Liver) (Liver; Table 3 screening experiment) | FAI (Liver) (Liver; Table 4 screening experiment)
1 | CCCCCCC(CC)OC(=O)CCCCCCCCN(CCCCCCCCC(=O)OC(CC)CCCCCC)CCCNC(=O)c1cccc(C(=O)NCCCN(CCCCCCCCC(=O)OC(CC)CCCCCC)CCCCCCCCC(=O)OC(CC)CCCCCC)c1 (stereo not drawn) [Compound 7-1, tetra(nonan-3-yl) 9,9′,9″,9′″-(((isophthaloylbis(azanediyl))bis(propane-3,1-diyl))bis(azanetriyl))tetranonanoate] | 82.4 | 0.16 | 76.7 | 28.2 | – | – | – | – | – | –
2 | CCCCCCC(CC)OC(=O)CCCCCCCCN(CCCCCCCCC(=O)OC(CC)CCCCCC)CCCNC(=O)c1ccc(C(=O)NCCCN(CCCCCCCCC(=O)OC(CC)CCCCCC)CCCCCCCCC(=O)OC(CC)CCCCCC)cc1 (stereo not drawn) [Compound 7-2, tetra(nonan-3-yl) 9,9′,9″,9′″-(((terephthaloylbis(azanediyl))bis(propane-3,1-diyl))bis(azanetriyl))tetranonanoate] | 110.0 | 0.08 | 58.4 | 3.1 | – | – | – | – | – | –
3 | CCCCCCC(CC)OC(=O)CCCCCCCCN(CCCCCCCCC(=O)OC(CC)CCCCCC)CCCNC(=O)c1cc(C(=O)NCCCN(CCCCCCCCC(=O)OC(CC)CCCCCC)CCCCCCCCC(=O)OC(CC)CCCCCC)cc(C(=O)OCCN(C)C)c1 (stereo not drawn) [Compound 7-5, tetra(nonan-3-yl) 9,9′,9″,9′-((((5-((2-(dimethylamino)ethoxy)carbonyl)isophthaloyl)bis(azanediyl))bis(propane-3,1-diyl))bis(azanetriyl))tetranonanoate] | 124.6 | 0.10 | 94.7 | 5.2 | – | – | – | – | – | –
4 | CCCCCC(CCCCC)CCOC(=O)CCCCCCCOC(=O)c1cc(C(=O)OCCCCCCCC(=O)OCCC(CCCCC)CCCCC)cc(C(=O)OCCCN(C)C)c1 [Compound 7-7, 1-(3-(dimethylamino)propyl) 3,5-bis(8-oxo-8-((3-pentyloctyl)oxy)octyl) benzene-1,3,5-tricarboxylate] | 86.5 | 0.09 | 75.3 | – | – | – | – | – | – | –
5 | CCCCCC(CCCCC)CCOC(=O)CCCCCCCOC(=O)c1cc(C(=O)OCCCCCCCC(=O)OCCC(CCCCC)CCCCC)cc(C(=O)OCCCCN(C)C)c1 [Compound 7-9, 1-(4-(dimethylamino)butyl) 3,5-bis(8-oxo-8-((3-pentyloctyl)oxy)octyl) benzene-1,3,5-tricarboxylate] | 90.8 | 0.11 | 84.9 | – | – | – | – | – | – | –
6 | CCCCC/C=C\C/C=C\CCCCCCCCC(CCCCCCCC/C=C\C/C=C\CCCCC)OC(=O)CCCN(C)C [MC3, (6Z,9Z,28Z,31Z)-heptatriaconta-6,9,28,31-tetraen-19-yl 4-(dimethylamino) butanoate] | – | – | – | – | 0.65 | 1.26 | 0.45 | 1.71 | 0.31 | 1.30

Source: patent US20240335543A1, “IONIZABLE AMINE AND ESTER LIPIDS AND LIPID NANOPARTICLES” (Beam Therapeutics Inc., priority 2021, published 2024)
